{"source": "paper PMC5727165", "about": "“A switch in nucleotide affinity governs activation of the Src and Tec family kinases” (Scientific Reports, 2017)", "key": {"Src^32K [1]": {"biological_target": "T1, Src^32K (Mus musculus, UniProt P05480)", "T1 construct": "mouse Src^85-535 (Src^32K); GST (cleaved yes); made in house; host or cells: baculovirus-infected Sf9 insect cells, co-expressed with human Csk", "T1 sequence (P05480 85-535)": "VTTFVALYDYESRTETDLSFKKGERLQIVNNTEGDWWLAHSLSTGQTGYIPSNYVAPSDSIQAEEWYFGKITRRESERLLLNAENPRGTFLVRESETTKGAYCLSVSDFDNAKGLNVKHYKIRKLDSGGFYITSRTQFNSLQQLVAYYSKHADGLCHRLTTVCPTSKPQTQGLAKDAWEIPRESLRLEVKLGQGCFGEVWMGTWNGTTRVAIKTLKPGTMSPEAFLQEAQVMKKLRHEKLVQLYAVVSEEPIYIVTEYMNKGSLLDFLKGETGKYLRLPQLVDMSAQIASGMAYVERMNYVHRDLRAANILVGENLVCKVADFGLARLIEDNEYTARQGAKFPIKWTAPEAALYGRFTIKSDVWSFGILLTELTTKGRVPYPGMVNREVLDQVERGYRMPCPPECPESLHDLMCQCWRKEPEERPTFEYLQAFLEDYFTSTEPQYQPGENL", "assay": "Fluorescence anisotropy binding of Mant-labelled nucleotides", "excerpt": "(§1) To characterise the nucleotide binding of Itk and Src, we purified recombinant wild type and mutant constructs of Itk and Src containing their respective SH3, SH2, and kinase domains (from here on referred to as Itk^32K, Src^32K, and Src^32KΔC, Fig. 1a). We confirmed the mass and homogeneity of isolated species by high-resolution anion exchange chromatography, intact mass spectrometry, and Western blotting with phospho-specific antibodies (Supplementary Figs 1–3). We performed fluorescence anisotropy measurements using Mant-labelled nucleotides. […] To avoid autophosphorylation during the course of the titration, we used the non-hydrolysable ATP analogue AMPPNP. […] Src^32K bound ADP approximately 6-fold more tightly than AMPPNP (Supplementary Fig. 4d).\n(§2) Human Itk^171–620 (Itk^32K), mouse Src^85-535 (Src^32K), and mouse Src^85-523 (Src^32KΔC) as well as their respective point mutants were expressed as GST fusions in baculovirus-infected Sf9 insect cells. For the generation of Tyr527-phosphorylated Src^85-535, the protein was co-expressed with human Csk using pFastBac Dual (Invitrogen). Proteins were purified by sequential glutathione-sepharose affinity chromatography, TEV cleavage, high-resolution anion exchange, and size exclusion chromatography in a final buffer of 50 mM Tris, pH 7.5, 200 mM NaCl, 1 mM TCEP, 1% (v/v) glycerol.\n(§3) The binding constants for ADP and AMPPNP were determined for Src and Itk proteins by fluorescence anisotropy, using 2′/3′-Mant-labelled nucleotides (Jena Bioscience). Increasing concentrations of Itk^32K, Itk^L351A or Src^32K were incubated with 40 μM Mant-nucleotide in 30 mM Tris pH 7.5, 200 mM NaCl, 5 mM MgCl2, and 1 mM TCEP. Measurements were made with a Perkin Elmer LS50B fluorimeter (λex = 355 nm, λem = 447 nm) at 20 °C. For each data point 50–60 measurements, each with an integration time of 1 s, were averaged. For competition nucleotide displacement assays, 40–80 μM of protein was incubated with 40 μM Mant-ADP until equilibrium was established. Unlabelled nucleotide was titrated into the reaction and fluorescence anisotropy monitored. The equilibrium inhibition constant for the unlabelled nucleotide was calculated from the fitted curve."}, "Itk^32K [2]": {"biological_target": "T2, Itk^32K (Homo sapiens, UniProt Q08881)", "T2 construct": "Human Itk^171–620 (Itk^32K); GST (cleaved yes); made in house; host or cells: baculovirus-infected Sf9 insect cells", "T2 sequence (Q08881 171-620)": "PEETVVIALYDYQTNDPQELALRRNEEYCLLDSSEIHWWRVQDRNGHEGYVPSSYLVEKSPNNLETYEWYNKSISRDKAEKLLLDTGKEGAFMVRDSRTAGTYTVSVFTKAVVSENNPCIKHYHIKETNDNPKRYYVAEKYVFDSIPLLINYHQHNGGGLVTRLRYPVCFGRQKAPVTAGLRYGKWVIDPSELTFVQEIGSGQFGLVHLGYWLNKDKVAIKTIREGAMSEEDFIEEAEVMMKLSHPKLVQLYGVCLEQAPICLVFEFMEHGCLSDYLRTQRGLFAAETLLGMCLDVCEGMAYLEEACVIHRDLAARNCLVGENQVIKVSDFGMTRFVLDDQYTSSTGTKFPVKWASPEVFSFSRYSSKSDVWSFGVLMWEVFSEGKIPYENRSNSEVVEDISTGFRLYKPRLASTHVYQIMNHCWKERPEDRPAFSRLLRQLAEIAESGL", "assay": "Fluorescence anisotropy binding of Mant-labelled nucleotides", "conditions": "wild type Itk^32K; 40 μM Mant-nucleotide, 20 °C", "excerpt": "as §1, §2, §3"}, "Src^32K [3]": {"biological_target": "T1, Src^32K", "assay": "Differential scanning fluorimetry (thermal stability vs nucleotide concentration)", "assay_type": "binding", "experimental": "(§4) We noted that the thermal stability of Src^32K initially decreases at low concentrations of ATP, before rising again at higher concentrations. This was reproducible and correlates with autophosphorylation of Tyr416 during the course of the assay (Supplementary Fig. 4h). Thermal stabilities as a function of nucleotide concentration were measured by differential scanning fluorimetry (DSF). Samples contained 0.1 mg/ml protein in 50 mM Tris pH 7.5, 150 mM NaCl, 1 mM TCEP, and 5 mM MgCl2 with ADP, ATP, or AMPPNP concentrations ranging from 0–16 mM. Samples were measured in triplicate using a BioRad iQ™5 Multicolor Real-Time PCR Detection System. For detection of phosphorylated protein, samples were diluted and 1 ng and 15 ng were loaded to SDS-PAGE for Src and Itk proteins, respectively. Phosphorylation was measured by immunoblot."}, "Itk^32K [4]": {"biological_target": "T2, Itk^32K", "assay": "Differential scanning fluorimetry (thermal stability vs nucleotide concentration)", "assay_type": "binding", "conditions": "same nucleotide concentrations, vs ATP or AMPPNP", "experimental": "as §4"}, "Src^32KΔC": {"biological_target": "T3, Src^32KΔC (Mus musculus, UniProt P05480)", "T3 construct": "mouse Src^85-523 (Src^32KΔC); GST (cleaved yes); made in house; host or cells: baculovirus-infected Sf9 insect cells", "T3 sequence (P05480 85-523, stated change not applied)": "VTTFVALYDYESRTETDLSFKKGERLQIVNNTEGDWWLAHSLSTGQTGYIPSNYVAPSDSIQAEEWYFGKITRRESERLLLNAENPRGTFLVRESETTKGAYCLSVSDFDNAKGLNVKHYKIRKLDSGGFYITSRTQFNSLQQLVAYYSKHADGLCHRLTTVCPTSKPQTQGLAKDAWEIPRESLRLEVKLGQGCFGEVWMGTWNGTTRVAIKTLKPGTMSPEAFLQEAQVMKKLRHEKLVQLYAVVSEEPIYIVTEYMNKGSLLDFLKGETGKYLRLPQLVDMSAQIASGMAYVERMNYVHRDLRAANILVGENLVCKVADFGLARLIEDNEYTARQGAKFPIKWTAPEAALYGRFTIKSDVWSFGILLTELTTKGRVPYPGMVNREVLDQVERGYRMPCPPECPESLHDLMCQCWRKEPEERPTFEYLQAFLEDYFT", "assay": "Competition nucleotide displacement assay (Mant-ADP, fluorescence anisotropy)", "assay_type": "binding", "experimental": "Figure 2 Itk adopts a Src-like autoinhibited conformation. (a) Competition nucleotide displacement assay for Src^32KΔC. 40 μM Src^32KΔC was incubated with 40 μM Mant-ADP until equilibrium was established. Unlabelled ADP or AMPPNP was titrated into the reaction and fluorescence anisotropy monitored. […] (b) Small angle X-ray scattering curves for Itk^32K (cyan), Src^32K (magenta), Src^32KΔC (blue), and Src^32K R175L (green). […] (d) Table of physical parameters obtained from the scattering curves for Itk^32K, Src^32K, Src^32KΔC, and Src^32K R175L. (e)Ab initio model of Itk^32K and docking of autoinhibited Src (2SRC.pdb) into the molecular envelope. Two orientations of the envelope are shown for clarity. (f) Ab initio molecular envelope for Src^32KΔC illustrates the fit of the crystal structure of autoinhibited Src. TEXT PRINTED IN THE PICTURE: (a) ADP: Src^32KΔC Ki (mM): 0.03 ± 0.008 | (a) ANP: Src^32KΔC Ki (mM): 0.69 ± 0.140\nas §3"}}, "note": "Where “and” joins values, the source holds several entries; their conditions need not be identical. Identical values can stand only once. Entries after “also recorded” stand apart in the source; their conditions may differ."}
{"compound": "Nc1ncnc2c1ncn2[C@@H]1O[C@H](COP(=O)(O)OP(=O)(O)O)[C@@H](O)[C@H]1O", "note": "[ADP]", "values": [{"measurement": "Kd", "setting": "Src^32K [1]; Mant-labelled nucleotide", "result": 66, "unit": "µM"}, {"measurement": "fold difference in affinity, ADP tighter than AMPPNP", "setting": "Src^32K [1]; direct Mant-nucleotide binding", "result": "approximately 6 fold"}, {"measurement": "Kd", "setting": "Itk^32K [2]", "result": "23.7 µM and 24 µM"}, {"measurement": "thermal stabilisation compared with other nucleotides", "setting": "Src^32K [3]; Src^32K pY416, vs ATP", "result": "higher thermal stability with ADP than ATP"}, {"measurement": "thermal stabilisation compared with other nucleotides", "setting": "Src^32K [3]; Src^32K, same nucleotide concentrations, vs ATP or AMPPNP", "result": "to a greater extent; also recorded: higher thermal stability"}, {"measurement": "thermal stabilisation compared with other nucleotides", "setting": "Itk^32K [4]", "result": "to a greater extent; also recorded: higher thermal stability"}, {"measurement": "Ki", "setting": "Src^32KΔC; 40 μM Src^32KΔC, 40 μM Mant-ADP, read-out: Ki (equilibrium inhibition constant)", "result": "30 ± 8", "unit": "µM"}, {"measurement": "fold difference in Ki, ADP preferred over AMPPNP", "setting": "Src^32KΔC; Src^32KΔC, displacement of Mant-ADP", "result": "approximately 23 fold"}]}
